Kd data for 2 compounds are collected here from paper doi:10.1101/2025.10.29.685286v1 (biorxiv, 2025).

The target in this assay is T1, NmGNAT (Nakamurella multipartita, UniProt C8XEF8).
T1 sequence (C8XEF8 1-164): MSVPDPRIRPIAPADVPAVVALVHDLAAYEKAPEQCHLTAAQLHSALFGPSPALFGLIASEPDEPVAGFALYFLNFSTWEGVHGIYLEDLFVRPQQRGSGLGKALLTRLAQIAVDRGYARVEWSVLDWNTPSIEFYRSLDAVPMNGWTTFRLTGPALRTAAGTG
Description: microscale thermophoresis. The class given is binding.

The term Kd denotes a measure of binding affinity in units of concentration. Low values mean higher affinity, high ones lower affinity. `CC(=O)SCCNC(=O)CCNC(=O)[C@H](O)C(C)(C)COP(=O)(O)OP(=O)(O)OC[C@H]1O[C@@H](n2cnc3c(N)ncnc32)[C@H](O)[C@@H]1OP(=O)(O)O` [acetyl-CoA] had a Kd of 18.9 ± 3.2 µM.
On to `NCCCC[C@H](N)C(=O)O` [lysine], for which binding was characterised by a dissociation constant (Kd) of 137 ± 4.2 µM. This Kd lies about 7.2-fold higher than the previous one.
